Laboratory results as given in ChEMBL document CHEMBL1146276, “Development of a novel therapeutic suppressor of brain proinflammatory cytokine up-regulation that attenuates synaptic dysfunction and behavioral deficits” (Bioorg Med Chem Lett, 2007).
≈ marks a conversion by molar mass, not a printed value. Each block holds one molecule with its values, some of them ahead of it. Calls of active or inactive are those of the source. The calls are words filed in the database; no cut-off is given here.

Columns and labels:
[1] = Inhibition of IL1 beta production in glia cells; type: functional, cell-based; settings: Homo sapiens
Mus musculus [2] = species: Mus musculus; assay: Prevention of loss of synaptic protein synaptophytsin in human amyloid-beta induced mouse injury model; type: functional, organism-based
Mus musculus [3] = assay: Suppression of IL1-beta production in human amyloid-beta induced mouse injury model at […], po for 2 weeks after 60 days of injury; type: functional, organism-based; design: dose 2.5 mg/kg
Mus musculus [4] = species: Mus musculus; assay: Attenuation of hippocampal dependent behavioral deficits in mouse by Y maze test; type: functional, organism-based; settings: Hippocampus
Mus musculus [5] = assay: Reduction of F4/80 positive microglia in human amyloid-beta induced mouse injury model at […], po for 2 weeks after 60 days of injury; type: functional, organism-based; design: dose 2.5 mg/kg
Mus musculus [6] = assay: Suppression of S100B production in human amyloid-beta induced mouse injury model at […], po for 2 weeks after 60 days of injury; type: functional, organism-based; design: dose 2.5 mg/kg
Mus musculus [7] = species: Mus musculus; assay: Prevention of loss of synaptic protein PSD95 in human amyloid-beta induced mouse injury model; type: functional, organism-based
Mus musculus [8] = assay: Reduction of GFAP-positive astrocytes in human amyloid-beta induced mouse injury model at […], po for 2 weeks after 60 days of injury; type: functional, organism-based; design: dose 2.5 mg/kg
Mus musculus [9] = assay: Suppression of TNFalpha production in human amyloid-beta induced mouse injury model at […], po for 2 weeks after 60 days of injury; type: functional, organism-based; design: dose 2.5 mg/kg
[10] = Partition coefficient, log P of the compound; type: physicochemical; settings: octanol/water
[11] = Chemical stability in dilute base after 5 days; type: physicochemical; settings: read-out: Stability
[12] = Chemical stability in water; type: physicochemical; settings: buffer
[13] = Chemical stability in hydrogen peroxide upto 48 hrs; type: physicochemical; settings: read-out: Stability
Homo sapiens = species: Homo sapiens; assay: Suppression of proinflammatory cytokine production in glia cells; type: functional, cell-based
[14] = Aqueous solubility of the compound; type: physicochemical; settings: buffer
[15] = Brain penetration, LogBB of the compound; type: ADME; settings: read-out: logBB (converted)
Cavia porcellus = assay: Cardiotoxicity in guinea pig assessed as prolongation of QTc interval at 15 mg/kg, po; type: toxicity, organism-based; design: dose 15 mg/kg, route oral; settings: in vivo

SMILES: Cc1cc(-c2ccccc2)nnc1N1CCN(c2cnccn2)CC1
IC50 [1]: 46.1 µM

SMILES: Clc1cc(-c2ccccc2)nnc1N1CCN(c2ncccn2)CC1
IC50 [1]: 9.5 µM

SMILES: Cc1cc(-c2ccccc2)nnc1N1CCN(c2ncccn2)CC1
Activity (Mus musculus [2]): Active
Activity (Mus musculus [3]): Active
Activity (Mus musculus [4]): Active
Activity (Mus musculus [5]): Active
Activity (Mus musculus [6]): Active
Activity (Mus musculus [7]): Active
Activity (Mus musculus [8]): Active
Activity (Mus musculus [9]): Active

SMILES: Cc1cc(-c2ccccc2)nnc1N1CCN(c2ncccn2)CC1.Cl.O
logP [10]: 2.3
remaining at 120 h [11]: 53%
Stability [12]: < 5%
remaining at 48 h [13]: < 10%

SMILES: Cc1cc(-c2ccccc2)nnc1NCCN1CCOCC1
Activity (Homo sapiens): inactive

SMILES: Cc1cc(-c2ccccc2)nnc1N1CCN(c2ccccc2)CC1
IC50 [1]: 15.5 µM

SMILES: c1ccc(-c2cc(-c3ccccc3)c(N3CCN(c4ncccn4)CC3)nn2)cc1 [listing 2 of 2 here]
Solubility [14]: < 2 ng/mL

More lines, main results first:

IC50 [1]: 48.9 µM
SMILES: Cc1cc(-c2ccccc2)nnc1N1CCN(C)CC1

IC50 [1]: 31.4 µM
SMILES: Cc1cc(-c2ccccc2)nnc1N1CCN(C2CCCCC2)CC1

logP [10]: 2.7
SMILES: c1ccc(-c2cc(-c3ccccc3)c(N3CCN(c4ncccn4)CC3)nn2)cc1 [listing 1 of 2 here]

Kp [15]: 2.82
Solubility [14]: 16 ng/mL (≈ 0.0481 µM)
IC50 [1]: 8.3 µM
SMILES: Cc1cc(-c2ccccc2)nnc1N1CCN(c2ncccn2)CC1 [MINOZAC FREE BASE]
Activity (Cavia porcellus): Non-toxic
